Data as given in patent US20130345182A1, “STABLE COMPOSITION COMPRISING CHOLESTEROL-LOWERING AGENTS, […] AGENTS AND […] AGENTS” (Silanes Laboratories, priority 2010, published 2013).

How the values were obtained:
[1] = Dissolution profile of tablets; assay type: physicochemical
Description: Assessment of the composition of the present invention formulated into tablets was made, as described in Example 1 to determine their dissolution profiles, according to methods widely known in the industry, in order to evaluate the release of drugs.

[2] = Determination of drugs content stability under extreme storage conditions; assay type: physicochemical
Method: The compositions from Example 1 were subjected to extreme storage conditions.
These conditions were maintained for a month, as follows: temperature 40° C. and 75% relative humidity (RH) and at temperature of 60° C. and 85% RH.
Then, the determination of the contents of each of the drugs was performed.

[3] = Long-term stability test; assay type: physicochemical
Method: The compositions of the present invention can be formulated into tablets which are packed in Aluminum-Aluminum blisters and subjected to stability studies according to ICH international guidelines (International Conference of Harmonization, Guideline for Industry, Stability Testing of New Drug Substances and Products. ICH Q1A (R2) February 2003).
Long-term stability studies were conducted on a batch from the composition of the present invention manufactured in accordance with that described in Example 1 but with the addition of coloring agent; these studies were conducted in selected conditions of temperature and humidity, which were 30° C. and 75% RH, and a temperature of 25° C. and 60% RH, showing that the pharmaceutical composition is stable according to the results exemplified in Table 3 up to 9 months, although the study was conducted under the regulatory guidelines for a longer period.

[4] = clinical; conditions: human
[5] = patients with type 2 diabetes mellitus and proteinuria; cited from earlier work
[6] = cited from earlier work
[7] = 0 months, 30° C./75% RH or 25° C./60% RH (not said which)

| Average of % dissolved ([1]; 10 minutes) | Average of % dissolved ([1]; 20 minutes) | Average of % dissolved ([1]; 30 minutes) | Average of % dissolved ([1]; 40 minutes) | Average of % dissolved ([1]; 50 minutes) | Average of % dissolved ([1]; 60 minutes) | Drug content ([2]; 1 Month 40° C./75% RH) | Drug content ([2]; 1 Month 60° C./85% RH) | Drug content ([2]; Initial) | Dissolution ([3]; 0 months) | Content [3, 7] | Content ([3]; 1 month) | Dissolution ([3]; 1 month) | Content ([3]; 3 months) | Dissolution ([3]; 3 months) | Content ([3]; 6 months) | Dissolution ([3]; 6 months) | Content ([3]; 9 months) | Dissolution ([3]; 9 months) | concentration at 0 h ([4]; in vivo) | Structure (SMILES) | further results |
| --- | --- | --- | --- | --- | --- | --- | --- | --- | --- | --- | --- | --- | --- | --- | --- | --- | --- | --- | --- | --- | --- |
| 12% | 34% | 56% | 73% | 84% | 88% | 96.45% | 96.05% | 94.63% | 88.75% | 98.70% | 101.00% | 78.38% | 98.54% | 83.57% | 98.67% | 87.60% | 95.14% | 81.66% |  | CC(=O)Oc1ccccc1C(=O)O [Acetylsalicylic acid, acetylsalicylic acid] |  |
| 60% | 100% | 102% | 102% | 103% | 104% | 96.31% | 96.64% | 95.88% | 103.01% | 100.32% | 99.24% | 95.28% | 98.50% | 96.38% | 99.85% | 92.77% | 95.33% | 91.66% | 0 ng/mL | CCCCc1nc(Cl)c(CO)n1Cc1ccc(-c2ccccc2-c2nn[nH]n2)cc1 [Losartan potassium, losartan potassium] | concentration at 0.17 h ([4]; in vivo): 39.7 ng/mL; concentration at 0.33 h ([4]; in vivo): 137 ng/mL; concentration at 0.5 h ([4]; in vivo): 191 ng/mL; concentration at 0.75 h ([4]; in vivo): 176 ng/mL; concentration at 1 h ([4]; in vivo): 140 ng/mL; concentration at 2 h ([4]; in vivo): 113 ng/mL; concentration at 2.5 h ([4]; in vivo): 96.3 ng/mL; concentration at 3 h ([4]; in vivo): 81.5 ng/mL; concentration at 4 h ([4]; in vivo): 57.5 ng/mL; concentration at 6 h ([4]; in vivo): 38.7 ng/mL; concentration at 7 h ([4]; in vivo): 21.8 ng/mL; concentration at 8 h ([4]; in vivo): 12.4 ng/mL; concentration at 10 h ([4]; in vivo): 6.01 ng/mL; concentration at 12 h ([4]; in vivo): 3.06 ng/mL; Progression of renal disease [5]: delays the progression of renal disease |
| 61% | 104% | 105% | 106% | 107% | 108% | 98.72% | 98.23% | 99.76% | 99.79% | 98.89% | 98.04% | 94.77% | 95.83% | 98.09% | 98.77% | 95.97% | 99.97% | 93.37% | 0 ng/mL | CC[C@H](C)C(=O)O[C@H]1C[C@H](O)C=C2C=C[C@H](C)[C@H](CC[C@@H](O)C[C@@H](O)CC(=O)O)[C@H]21 [Pravastatin sodium, pravastatin sodium] | concentration at 0.17 h ([4]; in vivo): 2.8 ng/mL; concentration at 0.33 h ([4]; in vivo): 24.9 ng/mL; concentration at 0.5 h ([4]; in vivo): 72.6 ng/mL; concentration at 0.75 h ([4]; in vivo): 113 ng/mL; concentration at 1 h ([4]; in vivo): 110 ng/mL; concentration at 2 h ([4]; in vivo): 77 ng/mL; concentration at 2.5 h ([4]; in vivo): 58 ng/mL; concentration at 3 h ([4]; in vivo): 42.5 ng/mL; concentration at 4 h ([4]; in vivo): 25.8 ng/mL; concentration at 6 h ([4]; in vivo): 16.2 ng/mL; concentration at 7 h ([4]; in vivo): 9.73 ng/mL; concentration at 8 h ([4]; in vivo): 13.3 ng/mL; concentration at 10 h ([4]; in vivo): 6.53 ng/mL; concentration at 12 h ([4]; in vivo): 1.71 ng/mL; concentration at 24 h ([4]; in vivo): 1.27 ng/mL; Incidence of type 2 diabetes mellitus, lower than in placebo group ([6]; patients administered pravastatin vs placebo): 30%; Reduction of incidence of cerebral thrombosis ([6]; patients): ≤ 20% |
|  |  |  |  |  |  |  |  |  |  |  |  |  |  |  |  |  |  |  |  | O=C(O)c1ccccc1O [Salicylic acid] | concentration at 0 h ([4]; plasma, oral): 0 ng/mL; concentration at 0.17 h ([4]; plasma, oral): 1.09 ng/mL; concentration at 0.33 h ([4]; plasma, oral): 3.97 ng/mL; concentration at 0.5 h ([4]; plasma, oral): 8.78 ng/mL; concentration at 0.75 h ([4]; plasma, oral): 14.8 ng/mL; concentration at 1 h ([4]; plasma, oral): 21.1 ng/mL; concentration at 2 h ([4]; plasma, oral): 28.8 ng/mL; concentration at 2.5 h ([4]; plasma, oral): 36.5 ng/mL; concentration at 3 h ([4]; plasma, oral): 43.3 ng/mL; concentration at 4 h ([4]; plasma, oral): 49.2 ng/mL; concentration at 6 h ([4]; plasma, oral): 50.2 ng/mL; concentration at 7 h ([4]; plasma, oral): 45.4 ng/mL; concentration at 8 h ([4]; plasma, oral): 25.1 ng/mL; concentration at 10 h ([4]; plasma, oral): 12.5 ng/mL; concentration at 12 h ([4]; plasma, oral): 4.21 ng/mL; concentration at 24 h ([4]; plasma, oral): 1.16 ng/mL |
